Data from patent publication US6887890B2, “Compounds exhibiting thrombopoietin-like activities” (Chugai Seiyaku Kabushiki Kaisha, priority 2000, dated 2005).

System: Mpl-expressing Ba/F3 cell line (human mpl gene)
Assay: Measurement of thrombopoietin (TPO) activity: viable cell count of Mpl-expressing Ba/F3 cell line (Cell Count Reagent SF, absorbance 450 nm)
Type: cell-based
Details: for Concentration: concentration corresponding to the maximum TPO activity value; for TPO activity: maximum TPO activity value, ODt/ODs×100 relative to maximum reaction of human TPO, Mpl-expressing Ba/F3 cells cultured at 37° C. for one day, at the concentration given
Experimental: The TPO activities of the compounds of the invention obtained in the aforementioned examples were measured by the procedure described below, for evaluation of their thrombopoietic effects.
Establishment of Mpl-expressing Ba/F3 Cell Line
The human mpl gene was cloned from cDNAs of the human erythroleukemia cell line HEL by PCR, and was incorporated into pCOS1 to construct an expression vector. The expression vector was transfected into Ba/F3 cells by electroporation method, and an Mpl-expressing Ba/F3 clone was established.
Measurement of Thrombopoietin (TPO) Activity
The cytokine-eliminated Mpl-expressing Ba/F3 line was plated in a 96-well plate at 25,000 cells/well. DMSO solutions containing the compounds obtained in each of the examples were then prepared to different specified concentration ranges, and each solution was added to the Mpl-expressing Ba/F3 cell line (final DMSO concentration: ≦0.1%), and the cell were cultured at 37° C. for one day. Human TPO (by R&D Systems or Genzyme) was used as a positive control.
Each of the cultured Mpl-expressing Ba/F3 cell lines was subjected to absorbance measurement at a wavelength of 450 nm (reference wavelength: 620 nm), corresponding to the viable cell count, using Cell Count Reagent SF (by Nacalai Tesque Inc.). The TPO activity of each compound for the Mpl-expressing Ba/F3 cell line was determined based on the following formula. TPO activity (%)=ODt/ODs×100
ODs: Absorbance at maximum reaction of human TPO (wavelength: 450-620 nm).
ODt: Absorbance of test solution (wavelength: 450-620 nm).
Tables 1 and 2 show the maximum TPO activity values and the corresponding concentrations of each compound, as obtained by the test described above.

Row | Compound | Concentration [µM] | TPO activity [%]
1 | Cl.NCCCC[C@@H](NC(=O)Cc1cccc(O)c1)C(=O)Nc1ccc(C(c2ccc(NC(=O)[C@@H](CCCCN)NC(=O)Cc3cccc(O)c3)cc2)c2ccc(NC(=O)[C@@H](CCCCN)NC(=O)Cc3cccc(O)c3)cc2)cc1 [Example 159, tris[4-[N-α-[2-(3-hydroxyphenyl)acetyl]-D-lysyl]aminophenyl]methane hydrochloride] | 25 | 18.6
2 | NCCCC[C@H](NC(=O)c1cccc2cc(O)ccc12)C(=O)Nc1ccc(C(c2ccc(NC(=O)[C@H](CCCCN)NC(=O)c3cccc4cc(O)ccc34)cc2)c2ccc(NC(=O)[C@H](CCCCN)NC(=O)c3cccc4cc(O)ccc34)cc2)cc1.O=C(O)C(F)(F)F [Example 200, tris[4-[N-α-(6-hydroxynaphthalen-1-yl)carbonyl-L-lysyl]aminophenyl]methane trifluoroacetate] | 25 | 144
3 | NCC[C@H](NC(=O)Cc1c[nH]c2ccccc12)C(=O)Nc1ccc(C(c2ccc(NC(=O)[C@H](CCN)NC(=O)Cc3c[nH]c4ccccc34)cc2)c2ccc(NC(=O)[C@H](CCN)NC(=O)Cc3c[nH]c4ccccc34)cc2)cc1.O=C(O)C(F)(F)F [Example 131, tris[4-[β-aminomethyl-N-[2-(1H-indol-3-yl)acetyl]-L-alanyl]aminophenyl]methane trifluoroacetate] | 50 | 88.0
4 | Cl.NCCCC[C@@H](NC(=O)c1cc2cc(O)ccc2[nH]1)C(=O)Nc1ccc(C(c2ccc(NC(=O)[C@@H](CCCCN)NC(=O)c3cc4cc(O)ccc4[nH]3)cc2)c2ccc(NC(=O)[C@@H](CCCCN)NC(=O)c3cc4cc(O)ccc4[nH]3)cc2)cc1 [Example 151, tris[4-[N-α-(5-hydroxy-1H-indol-2-yl)carbonyl-D-lysyl]aminophenyl]methane hydrochloride] | 50 | 90.8
5 | Cc1[nH]c2ccccc2c1CC(=O)N[C@H](CCCNC(=N)N)C(=O)Nc1ccc(C(c2ccc(NC(=O)[C@@H](CCCNC(=N)N)NC(=O)Cc3c(C)[nH]c4ccccc34)cc2)c2ccc(NC(=O)[C@@H](CCCNC(=N)N)NC(=O)Cc3c(C)[nH]c4ccccc34)cc2)cc1.Cl (stereo partly drawn) [Example 39, tris[4-[N-α-[2-(2-methyl-1H-indol-3-yl)acetyl]-D-arginyl]aminophenyl]methane hydrochloride] | 12.5 | 80.4
6 | Cl.NCCCC[C@H](NC(=O)Cc1ccc(O)cc1)C(=O)Nc1ccc(C(c2ccc(NC(=O)[C@H](CCCCN)NC(=O)Cc3ccc(O)cc3)cc2)c2ccc(NC(=O)[C@H](CCCCN)NC(=O)Cc3ccc(O)cc3)cc2)cc1 [Example 19, tris[4-[N-α-[2-(4-hydroxyphenyl)acetyl]-L-lysyl]aminophenyl]methane hydrochloride] | 50 | 19.1
7 | Cl.NCCCC[C@@H](NC(=O)c1cnccn1)C(=O)Nc1ccc(C(c2ccc(NC(=O)[C@@H](CCCCN)NC(=O)c3cnccn3)cc2)c2ccc(NC(=O)[C@@H](CCCCN)NC(=O)c3cnccn3)cc2)cc1 [Example 157, tris[4-[N-α-(pyrazin-2-yl)carbonyl-D-lysyl]aminophenyl]methane hydrochloride] | 50 | 36.1
8 | Cl.NCCCC[C@@H](NC(=O)Cc1ccncc1)C(=O)Nc1ccc(C(c2ccc(NC(=O)[C@@H](CCCCN)NC(=O)Cc3ccncc3)cc2)c2ccc(NC(=O)[C@@H](CCCCN)NC(=O)Cc3ccncc3)cc2)cc1 [Example 173, tris[4-[N-α-[2-(pyridin-4-yl)acetyl]-D-lysyl]aminophenyl]methane hydrochloride] | 100 | 35.4
9 | COc1ccc2[nH]c(C)c(CC(=O)N[C@@H](CCN)C(=O)Nc3ccc(C(c4ccc(NC(=O)[C@H](CCN)NC(=O)Cc5c(C)[nH]c6ccc(OC)cc56)cc4)c4ccc(NC(=O)[C@H](CCN)NC(=O)Cc5c(C)[nH]c6ccc(OC)cc56)cc4)cc3)c2c1.O=C(O)C(F)(F)F [Example 133, tris[4-[β-aminomethyl-N-[2-(5-methoxy-2-methyl-1H-indol-3-yl)acetyl]-L-alanyl]aminophenyl]methane trifluoroacetate] | 50 | 89.6
10 | Cc1cccc2c(CC(=O)N[C@H](CCCCN)C(=O)Nc3ccc(C(c4ccc(NC(=O)[C@@H](CCCCN)NC(=O)Cc5c[nH]c6c(C)cccc56)cc4)c4ccc(NC(=O)[C@@H](CCCCN)NC(=O)Cc5c[nH]c6c(C)cccc56)cc4)cc3)c[nH]c12.Cl [Example 155, tris[4-[N-α-[2-(7-methyl-1H-indol-3-yl)acetyl]-D-lysyl]aminophenyl]methane hydrochloride] | 25 | 44.3
11 | N[C@H](CCCCNC(=O)Cc1ccccc1)C(=O)Nc1ccc(C(c2ccc(NC(=O)[C@H](N)CCCCNC(=O)Cc3ccccc3)cc2)c2ccc(NC(=O)[C@H](N)CCCCNC(=O)Cc3ccccc3)cc2)cc1.O=C(O)C(F)(F)F [Example 187, tris[4-[N-ε-(2-phenylacetyl)-D-lysyl]aminophenyl]methane trifluoroacetate] | 25 | 60.2
12 | COc1ccc2[nH]c(C)c(CC(=O)N[C@@H](CCCN)C(=O)Nc3ccc(C(c4ccc(NC(=O)[C@H](CCCN)NC(=O)Cc5c(C)[nH]c6ccc(OC)cc56)cc4)c4ccc(NC(=O)[C@H](CCCN)NC(=O)Cc5c(C)[nH]c6ccc(OC)cc56)cc4)cc3)c2c1.O=C(O)C(F)(F)F [Example 135, tris[4-[N-α-[2-(5-methoxy-2-methyl-1H-indol-3-yl)acetyl]-L-ornithyl]aminophenyl]methane trifluoroacetate] | 50 | 15.8
13 | NCCCC[C@@H](NC(=O)c1cccc(O)c1)C(=O)Nc1ccc(C(c2ccc(NC(=O)[C@@H](CCCCN)NC(=O)c3cccc(O)c3)cc2)c2ccc(NC(=O)[C@@H](CCCCN)NC(=O)c3cccc(O)c3)cc2)cc1.O=C(O)C(F)(F)F [Example 186, tris[4-[N-α-(3-hydroxybenzoyl)-D-lysyl]aminophenyl]methane trifluoroacetate] | 25 | 35.8
14 | Cl.NCCCC[C@H](NC(=O)Cc1c[nH]c2ccc(O)cc12)C(=O)Nc1ccc(C(c2ccc(NC(=O)[C@H](CCCCN)NC(=O)Cc3c[nH]c4ccc(O)cc34)cc2)c2ccc(NC(=O)[C@H](CCCCN)NC(=O)Cc3c[nH]c4ccc(O)cc34)cc2)cc1 [Example 18, tris[4-[N-α-[2-(5-hydroxy-1H-indol-3-yl)acetyl]-L-lysyl]aminophenyl]methane hydrochloride] | 50 | 46.5
15 | Cl.NCCCC[C@@H](NC(=O)c1cccc2[nH]ccc12)C(=O)Nc1ccc(C(c2ccc(NC(=O)[C@@H](CCCCN)NC(=O)c3cccc4[nH]ccc34)cc2)c2ccc(NC(=O)[C@@H](CCCCN)NC(=O)c3cccc4[nH]ccc34)cc2)cc1 [Example 152, tris[4-[N-α-(1H-indol-4-yl)carbonyl-D-lysyl]aminophenyl]methane hydrochloride] | 25 | 62.0
16 | NCCCC[C@@H](NC(=O)Cc1ccc(O)c(O)c1)C(=O)Nc1ccc(C(c2ccc(NC(=O)[C@@H](CCCCN)NC(=O)Cc3ccc(O)c(O)c3)cc2)c2ccc(NC(=O)[C@@H](CCCCN)NC(=O)Cc3ccc(O)c(O)c3)cc2)cc1.O=C(O)C(F)(F)F [Example 188, tris[4-[N-α-[2-(3,4-dihydroxyphenyl)acetyl]-D-lysyl]aminophenyl]methane trifluoroacetate] | 100 | 10.1
17 | Cl.NCCCC[C@H](NC(=O)Cc1c[nH]c2ccccc12)C(=O)Nc1ccc(C(c2ccc(NC(=O)[C@H](CCCCN)NC(=O)Cc3c[nH]c4ccccc34)cc2)c2ccc(NC(=O)[C@H](CCCCN)NC(=O)Cc3c[nH]c4ccccc34)cc2)cc1 [Example 1, tris[4-[N-α-[2-(1H-indol-3-yl)acetyl]-L-lysyl]aminophenyl]methane hydrochloride] | 25 | 37.6
18 | Cl.NCCCC[C@H](NC(=O)c1cccnc1)C(=O)Nc1ccc(C(c2ccc(NC(=O)[C@H](CCCCN)NC(=O)c3cccnc3)cc2)c2ccc(NC(=O)[C@H](CCCCN)NC(=O)c3cccnc3)cc2)cc1 [Example 17, tris[4-[N-α-(3-pyridylcarbonyl)-L-lysyl]aminophenyl]methane hydrochloride] | 50 | 16.5
19 | Cl.NCCCSC[C@H](NC(=O)Cc1c[nH]c2ccccc12)C(=O)Nc1ccc(C(c2ccc(NC(=O)[C@H](CSCCCN)NC(=O)Cc3c[nH]c4ccccc34)cc2)c2ccc(NC(=O)[C@H](CSCCCN)NC(=O)Cc3c[nH]c4ccccc34)cc2)cc1 [Example 33, tris[4-[N-[2-(1H-indol-3-yl)acetyl]-S-(3-aminopropyl)-L-cystyl]aminophenyl]methane hydrochloride] | 50 | 17.4
